# Key:
# Test in all cases: relative viability (nuclei count vs DMSO), 5 days (fraction); higher = more cells survive
# [1] = compound: COC1=CC=C(C=C1)CN2C=CC3=C2C=C(C=C3)C(=O)NO + Nc1nc2[nH]cc(CCc3ccc(C(=O)N[C@@H](CCC(=O)O)C(=O)O)cc3)c2c(=O)[nH]1 [Pemetrexed] (partner 0.2 µM)
# Procedure, shortened: (§1)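 Medians of duplicate plates are given as relative viability. That measure is the nuclei count in treated wells divided by the count in vehicle wells. Counts were taken on 4× images of lung cancer cell lines in 1536-well plates, 5 days after pin-tool dosing the day after seeding with one drug alone or a fixed anchor-drug dose plus five library-drug doses (not always all listed) in √10 steps.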
# Veliparib + Trametinib = compound: C[C@]1(c2nc3c(C(N)=O)cccc3[nH]2)CCCN1 [Veliparib] + CC(=O)Nc1cccc(-n2c(=O)n(C3CC3)c(=O)c3c(Nc4ccc(I)cc4F)n(C)c(=O)c(C)c32)c1 [Trametinib] (partner 0.02 µM)
# Procedure, shortened: as §1
# Veliparib + Foretinib = compound: C[C@]1(c2nc3c(C(N)=O)cccc3[nH]2)CCCN1 [Veliparib] + COc1cc2c(Oc3ccc(NC(=O)C4(C(=O)Nc5ccc(F)cc5)CC4)cc3F)ccnc2cc1OCCCN1CCOCC1 [Foretinib] (partner 0.25 µM)
# Procedure, shortened: as §1
# Veliparib + Pemetrexed = compound: C[C@]1(c2nc3c(C(N)=O)cccc3[nH]2)CCCN1 [Veliparib] + Nc1nc2[nH]cc(CCc3ccc(C(=O)N[C@@H](CCC(=O)O)C(=O)O)cc3)c2c(=O)[nH]1 [Pemetrexed] (partner 0.2 µM)
# Procedure, shortened: as §1
cell line,measurement,setting,value
PC-3 [JPC-3],relative viability,[1]; first compound 0.08 µM,1.04
same,relative viability,[1]; first compound 0.8 µM,1.14
same,relative viability,[1]; first compound 2.53 µM,1.21
same,relative viability,[1]; first compound 8 µM,1.12
same,relative viability,Veliparib + Trametinib; first compound 0.02 µM,0.596
same,relative viability,Veliparib + Trametinib; first compound 0.2 µM,0.749
same,relative viability,Veliparib + Trametinib; first compound 0.6325 µM,0.685
same,relative viability,Veliparib + Trametinib; first compound 2 µM,0.682
same,relative viability,Veliparib + Foretinib; first compound 0.02 µM,1.01
same,relative viability,Veliparib + Foretinib; first compound 0.06325 µM,1.06
same,relative viability,Veliparib + Foretinib; first compound 0.2 µM,0.968
same,relative viability,Veliparib + Foretinib; first compound 0.6325 µM,0.975
same,relative viability,Veliparib + Foretinib; first compound 2 µM,0.983
same,relative viability,Veliparib + Pemetrexed; first compound 0.02 µM,1.01
same,relative viability,Veliparib + Pemetrexed; first compound 0.2 µM,1.33
same,relative viability,Veliparib + Pemetrexed; first compound 0.6325 µM,1.28
same,relative viability,Veliparib + Pemetrexed; first compound 2 µM,1.08
LOU-NH91,relative viability,[1]; first compound 0.253 µM,0.417
same,relative viability,[1]; first compound 0.8 µM,0.346
same,relative viability,[1]; first compound 2.53 µM,0.372
same,relative viability,[1]; first compound 8 µM,0.391
same,relative viability,Veliparib + Trametinib; first compound 0.02 µM,0.814
same,relative viability,Veliparib + Trametinib; first compound 0.06325 µM,0.789
same,relative viability,Veliparib + Trametinib; first compound 0.2 µM,0.793
same,relative viability,Veliparib + Trametinib; first compound 0.6325 µM,0.725
same,relative viability,Veliparib + Trametinib; first compound 2 µM,0.811
same,relative viability,Veliparib + Foretinib; first compound 0.02 µM,0.9
same,relative viability,Veliparib + Foretinib; first compound 0.06325 µM,0.889
same,relative viability,Veliparib + Foretinib; first compound 0.2 µM,0.977
same,relative viability,Veliparib + Foretinib; first compound 0.6325 µM,0.924
same,relative viability,Veliparib + Foretinib; first compound 2 µM,0.97
same,relative viability,Veliparib + Pemetrexed; first compound 0.02 µM,0.394
same,relative viability,Veliparib + Pemetrexed; first compound 0.06325 µM,0.374
same,relative viability,Veliparib + Pemetrexed; first compound 0.2 µM,0.39
same,relative viability,Veliparib + Pemetrexed; first compound 0.6325 µM,0.374
same,relative viability,Veliparib + Pemetrexed; first compound 2 µM,0.374
NCI-H838,relative viability,[1]; first compound 0.08 µM,0.232
same,relative viability,[1]; first compound 0.253 µM,0.27
same,relative viability,[1]; first compound 0.8 µM,0.244
same,relative viability,[1]; first compound 2.53 µM,0.234
same,relative viability,[1]; first compound 8 µM,0.257
same,relative viability,Veliparib + Trametinib; first compound 0.02 µM,0.566
same,relative viability,Veliparib + Trametinib; first compound 0.06325 µM,0.501
same,relative viability,Veliparib + Trametinib; first compound 0.2 µM,0.54
same,relative viability,Veliparib + Trametinib; first compound 0.6325 µM,0.524
same,relative viability,Veliparib + Trametinib; first compound 2 µM,0.521
same,relative viability,Veliparib + Foretinib; first compound 0.02 µM,1.09
same,relative viability,Veliparib + Foretinib; first compound 0.06325 µM,0.987
same,relative viability,Veliparib + Foretinib; first compound 0.2 µM,1.04
same,relative viability,Veliparib + Foretinib; first compound 0.6325 µM,0.967
same,relative viability,Veliparib + Foretinib; first compound 2 µM,1.06
same,relative viability,Veliparib + Pemetrexed; first compound 0.02 µM,0.262
same,relative viability,Veliparib + Pemetrexed; first compound 0.06325 µM,0.255
same,relative viability,Veliparib + Pemetrexed; first compound 0.2 µM,0.244
same,relative viability,Veliparib + Pemetrexed; first compound 0.6325 µM,0.269
same,relative viability,Veliparib + Pemetrexed; first compound 2 µM,0.269
NCI-H23,relative viability,[1]; first compound 0.08 µM,0.514
same,relative viability,[1]; first compound 0.253 µM,0.625
same,relative viability,[1]; first compound 0.8 µM,0.714
same,relative viability,[1]; first compound 2.53 µM,0.709
same,relative viability,[1]; first compound 8 µM,0.668
same,relative viability,Veliparib + Trametinib; first compound 0.02 µM,0.448
same,relative viability,Veliparib + Trametinib; first compound 0.06325 µM,0.413
same,relative viability,Veliparib + Trametinib; first compound 0.2 µM,0.509
same,relative viability,Veliparib + Trametinib; first compound 0.6325 µM,0.4
same,relative viability,Veliparib + Trametinib; first compound 2 µM,0.469
same,relative viability,Veliparib + Foretinib; first compound 0.02 µM,1.08
same,relative viability,Veliparib + Foretinib; first compound 0.06325 µM,0.882
same,relative viability,Veliparib + Foretinib; first compound 0.2 µM,1.01
same,relative viability,Veliparib + Foretinib; first compound 0.6325 µM,0.935
same,relative viability,Veliparib + Foretinib; first compound 2 µM,1.08
same,relative viability,Veliparib + Pemetrexed; first compound 0.02 µM,0.615
same,relative viability,Veliparib + Pemetrexed; first compound 0.06325 µM,0.593
same,relative viability,Veliparib + Pemetrexed; first compound 0.2 µM,0.623
same,relative viability,Veliparib + Pemetrexed; first compound 0.6325 µM,0.747
same,relative viability,Veliparib + Pemetrexed; first compound 2 µM,0.622
NCI-H2023,relative viability,[1]; first compound 0.08 µM,0.23
same,relative viability,[1]; first compound 0.253 µM,0.199
same,relative viability,[1]; first compound 0.8 µM,0.207
same,relative viability,[1]; first compound 2.53 µM,0.208
same,relative viability,[1]; first compound 8 µM,0.209
same,relative viability,Veliparib + Trametinib; first compound 0.06325 µM,0.636
same,relative viability,Veliparib + Trametinib; first compound 0.2 µM,0.563
same,relative viability,Veliparib + Trametinib; first compound 0.6325 µM,0.563
same,relative viability,Veliparib + Trametinib; first compound 2 µM,0.477
same,relative viability,Veliparib + Foretinib; first compound 0.02 µM,0.78
same,relative viability,Veliparib + Foretinib; first compound 0.06325 µM,0.691
same,relative viability,Veliparib + Foretinib; first compound 0.2 µM,0.852
same,relative viability,Veliparib + Foretinib; first compound 0.6325 µM,0.885
same,relative viability,Veliparib + Foretinib; first compound 2 µM,0.788
same,relative viability,Veliparib + Pemetrexed; first compound 0.06325 µM,0.212
same,relative viability,Veliparib + Pemetrexed; first compound 0.2 µM,0.27
same,relative viability,Veliparib + Pemetrexed; first compound 0.6325 µM,0.221
same,relative viability,Veliparib + Pemetrexed; first compound 2 µM,0.231
NCI-H1993,relative viability,[1]; first compound 0.08 µM,0.542
same,relative viability,[1]; first compound 0.253 µM,0.529
same,relative viability,[1]; first compound 0.8 µM,0.648
same,relative viability,[1]; first compound 2.53 µM,0.603
same,relative viability,[1]; first compound 8 µM,0.549
same,relative viability,Veliparib + Trametinib; first compound 0.06325 µM,0.63
same,relative viability,Veliparib + Trametinib; first compound 0.2 µM,0.519
same,relative viability,Veliparib + Trametinib; first compound 0.6325 µM,0.425
same,relative viability,Veliparib + Trametinib; first compound 2 µM,0.552
same,relative viability,Veliparib + Foretinib; first compound 0.02 µM,0.674
same,relative viability,Veliparib + Foretinib; first compound 0.06325 µM,0.7
same,relative viability,Veliparib + Foretinib; first compound 0.2 µM,0.789
same,relative viability,Veliparib + Foretinib; first compound 0.6325 µM,0.828
same,relative viability,Veliparib + Foretinib; first compound 2 µM,0.79
same,relative viability,Veliparib + Pemetrexed; first compound 0.06325 µM,0.708
same,relative viability,Veliparib + Pemetrexed; first compound 0.2 µM,0.616
same,relative viability,Veliparib + Pemetrexed; first compound 0.6325 µM,0.632
same,relative viability,Veliparib + Pemetrexed; first compound 2 µM,0.627

# Source: the supplement of paper PMC10307832
